Data from patent US12576074B2, “Kits and methods for induction of cardioversion in subjects with atrial arrhythmias” (InCarda Therapeutics, Inc., priority 2020, dated 2026).
Where “and” joins values, the source holds several entries; their conditions need not be identical. Equal values may be shown once. Read-outs that look alike come from different tables or passages of the source.

Experiments:
[1] = target: L-type calcium channels (ICaL), CaV1.2 channels (Homo sapiens, UniProt Q13936); details: cited from earlier work
[2] = cited from earlier work
Sinclair swine [3] = assay: Clinical observations and survival in swine; assay type: in vivo; details: two animals (one treatment A, one treatment B); deemed due to anesthesia
From the text: All animals survived to study completion. Animals underwent clinical observations continuously while the animals are under anesthesia during, pre- and post-dosing through to final blood collection per TXP-1532, Pharmacologic and Toxicological Observations of Experimental Animals, and twice daily per ACL-1974 Receipt, Quarantine and Husbandry of Swine. […] One of the animals in question was during the high-dose treatment (“B”) and was intubated and provided oxygen under the direction of veterinary staff. The other animal was during the low-dose treatment (“A”) and returned to breathing normally without need of additional support. Both of these abnormal events were deemed due to anesthesia.
All animals survived to study completion with no definitive test article clinical observations.

[4] = test system: ACh-mediated AF in isolated arterially-perfused canine right atrium; assay: Termination of ACh-induced persistent AF in canine isolated coronary-perfused right atrial preparations (Series II); parameters: species or system canine (Beagles); details: flecainide 1.5 μM, ibutilide 20 nM, ACh 0.5 μM
Method: Experiments were performed using isolated arterially-perfused canine preparations consisting of right atrium with a rim of right ventricle. The hearts were from Beagles approximately 1 year of age and were stored in ice cold cardioplegic solution for approximately 40 minutes before experimentation.
During experiments, transmembrane action potential (AP) recordings (sampling rate 41 kHz) were obtained from the atrium and ventricle using floating glass microelectrodes (10-25 MΩ DC resistance). A pseudo-electrocardiogram (ECG) was recorded using two electrodes consisting of Ag/AgCl half cells placed in the Tyrode's solution, bathing the preparation, 1.0 to 1.2 cm from opposite ends of the atrial coronary-perfused preparations (FIG. 1). […] The diastolic threshold of excitation (DTE) was determined by increasing stimulus intensity in 0.01 mA steps starting from 0.1 mA, until a steady 1:1 activation was achieved. Post-repolarization refractoriness (PRR) was recognized when ERP exceeded APD90 in the ventricle and APD70 in atria. Ventricular ERP coincides with APD90, whereas atrial ERP generally coincides with APD70.
Ventricular electrical activity was monitored for the development of early afterdepolarizations (EADs) and torsade de pointes (TdP).
Stock solutions were made by dissolving test article dry powder in distilled water vehicle. […]

[5] = test system: canine left ventricular wedge preparations; assay: Canine left ventricular wedge preparation, repolarization/EAD sensitised (Series III); details: ibutilide 50 nM 40 min, then flecainide 1.5 μM 30 min added; 3 mM KCl
Method: Drugs were administered in the order and concentrations specified in TABLE 4.
Canine left ventricular (LV) wedge preparations were excised from the same hearts used to obtain the right atrial preparations.
Panel A: Control. […] The numbers appearing under M APs indicate APD90 values, and those on the ECG recordings indicate QT interval values.

Sinclair swine [6] = assay: Electrocardiograms after IV infusion in swine
Method: After the animals were transferred to study, all animals were randomly assigned to treatment groups per the study design described below. This study was designed as a cross-over design with a minimum of 1-week washout between Treatment “A” and Treatment “B”. […] Electrocardiograms (EKGs) were performed prior to infusion and within 30 minutes of dose completion for both “A” and “B” treatments. Infusions were performed under sedation and anesthesia was maintained post-infusion for the duration of the blood collections. Blood was collected following TABLE 5 below: prior to infusion, halfway through infusion, and at 0, 2, 4, 6, 8, 10, 15, 30, 45, 60, and 120 minutes post-infusion completion for both treatment “A” and “B”.
Swine were sedated with target doses of 0.5 mg/kg of midazolam and 25 mg/kg of ketamine (actual doses ranging from […] and 24.83-25.33 mg/kg, respectively), with the exception of one animal which received half the target doses per veterinary instruction (0.26 mg/kg midazolam and 12.67 mg/kg ketamine). Animals were anesthetized with isoflurane (5% for induction, ˜0.5-3% for maintenance) via face mask inhalation for the duration of the infusion and blood collections. All anesthesia and monitoring of vital parameters were performed in accordance with ACL-2011.
All animals underwent an electrocardiogram (EKG) using the EMKA system. EKGs were collected prior to dosing (any time prior to each dose administration) and within 30 minutes completion of each infusion per TLE-2125, Physiological Data Collection for Large Animals Using the emkaPACK4g Acquisition System. ECG waveforms were quantitatively evaluated for heart rate (HR) and PR, QRS, and QT/QTc intervals using a validated ecgAUTO system (v3.5.5, emka TECHNOLOGIES, Paris, France). • QTcB (Bazett's)=QT/RR(1/2) • QTcF (Fridericia)=QT/RR(1/3) • QTcV (Van de Water)=QT−0.087 (RR−1000) Where RR=time between successive beats, measured in milliseconds.

[7] = test system: paroxysmal atrial fibrillation; details: average population; cited from earlier work
[8] = target: cardiac voltage-gated sodium channels (Nav1.5 subtype), peak sodium current (Homo sapiens, UniProt Q14524); details: unbinding from bound sodium channels; cited from earlier work
Ito = details: value used in O'Hara-Rudy model; cited from earlier work
[9] = target: ryanodine receptor RyR2 (IRyR) (Homo sapiens, UniProt Q92736); details: cited from earlier work
Sequence of ryanodine receptor RyR2 (IRyR) (Q92736 whole entry): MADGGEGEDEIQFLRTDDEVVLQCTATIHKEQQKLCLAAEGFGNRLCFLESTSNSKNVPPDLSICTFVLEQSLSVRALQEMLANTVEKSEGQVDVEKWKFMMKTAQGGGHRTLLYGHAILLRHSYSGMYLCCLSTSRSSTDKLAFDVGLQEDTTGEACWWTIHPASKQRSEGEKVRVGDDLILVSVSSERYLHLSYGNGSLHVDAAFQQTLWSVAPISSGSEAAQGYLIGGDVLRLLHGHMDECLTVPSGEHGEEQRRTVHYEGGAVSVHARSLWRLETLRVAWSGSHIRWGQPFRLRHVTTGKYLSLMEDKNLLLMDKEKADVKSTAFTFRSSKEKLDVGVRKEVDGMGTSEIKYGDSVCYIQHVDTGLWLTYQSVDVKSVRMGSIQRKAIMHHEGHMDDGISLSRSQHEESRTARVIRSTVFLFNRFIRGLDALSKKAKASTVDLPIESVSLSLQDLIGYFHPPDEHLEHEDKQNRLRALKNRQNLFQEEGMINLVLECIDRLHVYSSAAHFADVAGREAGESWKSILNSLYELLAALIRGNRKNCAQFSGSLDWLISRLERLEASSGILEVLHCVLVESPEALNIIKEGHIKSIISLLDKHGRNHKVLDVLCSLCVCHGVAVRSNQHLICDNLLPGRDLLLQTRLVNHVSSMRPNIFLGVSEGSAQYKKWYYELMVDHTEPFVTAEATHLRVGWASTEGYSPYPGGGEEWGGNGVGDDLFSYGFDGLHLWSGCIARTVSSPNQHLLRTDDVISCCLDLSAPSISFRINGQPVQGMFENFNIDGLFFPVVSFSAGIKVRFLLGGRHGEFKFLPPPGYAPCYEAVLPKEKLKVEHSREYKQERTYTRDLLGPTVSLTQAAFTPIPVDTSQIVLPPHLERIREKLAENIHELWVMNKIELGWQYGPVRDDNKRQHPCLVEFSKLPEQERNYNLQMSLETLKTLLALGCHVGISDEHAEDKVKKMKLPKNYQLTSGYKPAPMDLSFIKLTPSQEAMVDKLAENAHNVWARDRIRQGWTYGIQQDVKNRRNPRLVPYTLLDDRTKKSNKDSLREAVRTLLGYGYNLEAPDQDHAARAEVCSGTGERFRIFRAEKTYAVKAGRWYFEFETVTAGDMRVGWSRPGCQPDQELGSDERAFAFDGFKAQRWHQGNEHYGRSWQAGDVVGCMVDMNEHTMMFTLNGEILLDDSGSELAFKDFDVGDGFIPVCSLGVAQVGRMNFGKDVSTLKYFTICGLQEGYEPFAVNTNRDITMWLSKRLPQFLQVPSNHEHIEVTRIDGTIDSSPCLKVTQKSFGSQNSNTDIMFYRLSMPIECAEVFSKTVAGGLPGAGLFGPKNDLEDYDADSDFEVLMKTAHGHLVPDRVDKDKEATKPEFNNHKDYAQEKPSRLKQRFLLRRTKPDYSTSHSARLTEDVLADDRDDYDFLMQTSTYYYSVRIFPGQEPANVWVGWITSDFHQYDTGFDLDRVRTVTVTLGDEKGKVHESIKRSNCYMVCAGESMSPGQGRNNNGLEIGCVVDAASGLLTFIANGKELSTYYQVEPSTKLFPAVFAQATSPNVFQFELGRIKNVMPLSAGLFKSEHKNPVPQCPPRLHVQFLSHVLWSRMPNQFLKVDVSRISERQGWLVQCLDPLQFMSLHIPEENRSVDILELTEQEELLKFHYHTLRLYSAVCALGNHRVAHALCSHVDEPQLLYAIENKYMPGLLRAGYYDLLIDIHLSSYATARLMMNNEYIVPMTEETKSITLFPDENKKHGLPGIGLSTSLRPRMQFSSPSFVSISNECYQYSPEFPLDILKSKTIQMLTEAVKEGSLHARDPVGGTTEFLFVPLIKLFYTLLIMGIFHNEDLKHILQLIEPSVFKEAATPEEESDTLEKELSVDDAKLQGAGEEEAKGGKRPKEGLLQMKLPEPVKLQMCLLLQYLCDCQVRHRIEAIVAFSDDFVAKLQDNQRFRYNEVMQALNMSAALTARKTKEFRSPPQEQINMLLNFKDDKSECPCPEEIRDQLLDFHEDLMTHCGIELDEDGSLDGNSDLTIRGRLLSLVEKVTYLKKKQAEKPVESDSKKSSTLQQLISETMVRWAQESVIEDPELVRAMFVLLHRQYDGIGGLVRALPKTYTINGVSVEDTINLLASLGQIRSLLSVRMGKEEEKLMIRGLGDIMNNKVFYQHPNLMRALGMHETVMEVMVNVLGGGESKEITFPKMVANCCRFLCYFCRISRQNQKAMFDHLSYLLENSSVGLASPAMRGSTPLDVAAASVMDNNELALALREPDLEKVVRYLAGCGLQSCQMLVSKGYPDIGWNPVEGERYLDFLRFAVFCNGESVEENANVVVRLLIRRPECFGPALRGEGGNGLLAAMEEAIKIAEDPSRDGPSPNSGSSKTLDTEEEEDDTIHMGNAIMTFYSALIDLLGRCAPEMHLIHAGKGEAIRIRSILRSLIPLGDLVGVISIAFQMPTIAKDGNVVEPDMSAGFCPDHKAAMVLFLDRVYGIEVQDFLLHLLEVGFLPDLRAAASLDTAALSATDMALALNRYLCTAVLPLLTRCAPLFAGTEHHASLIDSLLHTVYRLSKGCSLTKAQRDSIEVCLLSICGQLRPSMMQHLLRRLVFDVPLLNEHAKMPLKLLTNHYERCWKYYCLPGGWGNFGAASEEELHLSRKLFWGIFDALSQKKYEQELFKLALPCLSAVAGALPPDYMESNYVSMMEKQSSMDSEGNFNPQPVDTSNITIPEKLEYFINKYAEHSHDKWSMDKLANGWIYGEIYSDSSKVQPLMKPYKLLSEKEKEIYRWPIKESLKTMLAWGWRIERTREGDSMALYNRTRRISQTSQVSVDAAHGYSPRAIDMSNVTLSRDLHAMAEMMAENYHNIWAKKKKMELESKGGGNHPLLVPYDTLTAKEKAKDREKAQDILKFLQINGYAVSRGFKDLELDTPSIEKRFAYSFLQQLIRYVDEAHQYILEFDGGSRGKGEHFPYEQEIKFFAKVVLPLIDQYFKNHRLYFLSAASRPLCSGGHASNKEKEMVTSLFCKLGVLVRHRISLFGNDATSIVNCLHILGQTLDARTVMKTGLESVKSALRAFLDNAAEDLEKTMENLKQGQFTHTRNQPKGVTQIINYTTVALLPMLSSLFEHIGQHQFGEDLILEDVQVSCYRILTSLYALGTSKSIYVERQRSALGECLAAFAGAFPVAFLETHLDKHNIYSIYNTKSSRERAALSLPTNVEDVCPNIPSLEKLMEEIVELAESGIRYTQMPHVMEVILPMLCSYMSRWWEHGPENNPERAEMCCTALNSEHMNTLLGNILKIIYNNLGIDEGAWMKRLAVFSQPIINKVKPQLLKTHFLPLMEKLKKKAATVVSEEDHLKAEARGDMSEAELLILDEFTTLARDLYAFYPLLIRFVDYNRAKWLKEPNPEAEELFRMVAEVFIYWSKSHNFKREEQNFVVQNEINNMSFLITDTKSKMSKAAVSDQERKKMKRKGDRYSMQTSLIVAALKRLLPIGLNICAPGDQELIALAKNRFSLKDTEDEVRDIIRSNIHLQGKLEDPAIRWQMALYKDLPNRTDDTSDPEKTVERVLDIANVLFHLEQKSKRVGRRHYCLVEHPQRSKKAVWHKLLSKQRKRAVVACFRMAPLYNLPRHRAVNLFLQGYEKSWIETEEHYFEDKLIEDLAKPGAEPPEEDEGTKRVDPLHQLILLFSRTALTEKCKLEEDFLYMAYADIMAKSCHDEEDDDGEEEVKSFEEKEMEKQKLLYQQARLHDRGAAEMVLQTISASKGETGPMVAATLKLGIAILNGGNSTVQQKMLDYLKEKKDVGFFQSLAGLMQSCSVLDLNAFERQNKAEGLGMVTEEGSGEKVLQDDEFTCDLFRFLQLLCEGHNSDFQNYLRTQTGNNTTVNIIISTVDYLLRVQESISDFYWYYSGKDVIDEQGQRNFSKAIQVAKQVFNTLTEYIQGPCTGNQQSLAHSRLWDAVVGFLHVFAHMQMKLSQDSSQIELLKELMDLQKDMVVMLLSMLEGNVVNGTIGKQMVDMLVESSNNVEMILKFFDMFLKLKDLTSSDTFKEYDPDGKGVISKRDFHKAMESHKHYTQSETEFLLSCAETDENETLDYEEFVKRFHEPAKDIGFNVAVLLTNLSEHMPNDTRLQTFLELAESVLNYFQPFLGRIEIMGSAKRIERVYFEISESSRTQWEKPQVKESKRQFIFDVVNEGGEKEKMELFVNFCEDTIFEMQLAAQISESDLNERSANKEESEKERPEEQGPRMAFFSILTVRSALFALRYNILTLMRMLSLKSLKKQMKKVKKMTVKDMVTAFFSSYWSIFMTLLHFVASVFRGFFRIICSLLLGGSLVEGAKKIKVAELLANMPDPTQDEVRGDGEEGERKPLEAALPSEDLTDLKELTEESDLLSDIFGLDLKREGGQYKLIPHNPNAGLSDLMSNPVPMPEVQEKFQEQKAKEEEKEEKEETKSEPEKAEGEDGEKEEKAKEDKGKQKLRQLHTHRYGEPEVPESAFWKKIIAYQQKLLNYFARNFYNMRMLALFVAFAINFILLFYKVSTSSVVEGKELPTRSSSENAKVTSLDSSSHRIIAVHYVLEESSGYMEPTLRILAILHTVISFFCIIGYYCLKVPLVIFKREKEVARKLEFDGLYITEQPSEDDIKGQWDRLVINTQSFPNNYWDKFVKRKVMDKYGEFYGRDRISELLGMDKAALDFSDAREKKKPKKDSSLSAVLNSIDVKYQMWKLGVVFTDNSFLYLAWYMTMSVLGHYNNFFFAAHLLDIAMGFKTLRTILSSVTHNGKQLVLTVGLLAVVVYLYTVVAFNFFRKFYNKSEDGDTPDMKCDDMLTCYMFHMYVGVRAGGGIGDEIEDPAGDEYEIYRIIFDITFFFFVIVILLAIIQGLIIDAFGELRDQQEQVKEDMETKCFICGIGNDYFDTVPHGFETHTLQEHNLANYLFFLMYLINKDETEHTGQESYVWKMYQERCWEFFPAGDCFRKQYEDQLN

IK1 = target: T1, IK1 (Homo sapiens, UniProt P63252); details: flecainide increases IK1; used to calculate Gk1; cited from earlier work
T1 sequence (P63252 1-427): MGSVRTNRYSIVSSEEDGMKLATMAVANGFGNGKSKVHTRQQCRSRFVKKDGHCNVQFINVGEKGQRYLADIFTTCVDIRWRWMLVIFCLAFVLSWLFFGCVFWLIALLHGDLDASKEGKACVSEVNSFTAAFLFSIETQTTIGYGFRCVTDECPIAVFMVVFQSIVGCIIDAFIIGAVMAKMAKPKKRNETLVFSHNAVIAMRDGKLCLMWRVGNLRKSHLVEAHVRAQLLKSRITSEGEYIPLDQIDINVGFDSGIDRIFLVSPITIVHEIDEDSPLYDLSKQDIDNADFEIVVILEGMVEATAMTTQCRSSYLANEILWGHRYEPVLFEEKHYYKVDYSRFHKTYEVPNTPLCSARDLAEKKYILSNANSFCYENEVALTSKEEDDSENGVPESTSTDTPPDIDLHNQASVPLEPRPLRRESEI

[10] = Treatment A (flecainide 1 mg/kg, ibutilide 0.007 mg/kg or both, IV), individual animal
[11] = Treatment B (flecainide 2 mg/kg, ibutilide 0.014 mg/kg or both, IV), individual animal

[Mg+2] [Mg^2+]
decrease in ICaL ([1]; ICaL stimulated by cAMP (beta-adrenergic agonists)): about 63%
decrease in ICaL ([1]; basal conditions): about 26%

CCCCCCCCCCCCCCCC(=O)OC[C@H](COP(=O)([O-])OCC[N+](C)(C)C)OC(=O)CCCCCCCCCCCCCCC [DPPC, dipalmitoylphosphatidylcholine]
solubility in water [2]: about 10^−10 mol/L

CCCCCCCN(CC)CCCC(O)c1ccc(NS(C)(=O)=O)cc1 (stereo not drawn) [Ibutilide, N-(4-(4-(ethyl(heptyl)amino)-1-hydroxybutyl)phenyl)methanesulfonamide]
abnormal clinical observations (Sinclair swine [3]): stopped breathing under anesthesia
termination of ACh-induced persistent AF (preparations terminated out of tested) [4]: 1 out of 3
effect on repolarization (QT interval, Tpeak-Tend) [5]: significantly prolonged repolarization
Avg ATcV, baseline-normalized post-infusion (Sinclair swine [6]; [10]): 14.4% and 10.5% and 5.0%
Avg HR, baseline-normalized post-infusion (Sinclair swine [6]; [10]): −19.5% and −54.7% and −28.7%
Avg PR, baseline-normalized post-infusion (Sinclair swine [6]; [10]): 4.8% and 40.7% and 7.1%
Avg QRS, baseline-normalized post-infusion (Sinclair swine [6]; [10]): 8.2% and 7.3% and 4.9%
Avg QT, baseline-normalized post-infusion (Sinclair swine [6]; [10]): 19.9% and 28.1% and 11.7%
Avg QTcB, baseline-normalized post-infusion (Sinclair swine [6]; [10]): 7.5% and −13.4% and −5.8%
Avg QTcF, baseline-normalized post-infusion (Sinclair swine [6]; [10]): 11.5% and −1.4% and −0.3%
Avg ATcV, baseline-normalized post-infusion (Sinclair swine [6]; Treatment A, group mean): 10.0%
Avg HR, baseline-normalized post-infusion (Sinclair swine [6]; Treatment A, group mean): −34.3%
Avg PR, baseline-normalized post-infusion (Sinclair swine [6]; Treatment A, group mean): 17.5%
Avg QRS, baseline-normalized post-infusion (Sinclair swine [6]; Treatment A, group mean): 6.8%
Avg QT, baseline-normalized post-infusion (Sinclair swine [6]; Treatment A, group mean): 19.9%
Avg QTcB, baseline-normalized post-infusion (Sinclair swine [6]; Treatment A, group mean): −3.9%
Avg QTcF, baseline-normalized post-infusion (Sinclair swine [6]; Treatment A, group mean): 3.3%
Avg ATcV, baseline-normalized post-infusion (Sinclair swine [6]; [11]): 16.1% and 13.1% and 13.6%
Avg HR, baseline-normalized post-infusion (Sinclair swine [6]; [11]): −38.3% and −12.7% and −15.4%
Avg PR, baseline-normalized post-infusion (Sinclair swine [6]; [11]): 28.2% and 2.9% and 14.7%
Avg QRS, baseline-normalized post-infusion (Sinclair swine [6]; [11]): 7.7% and 16.8% and 6.5%
Avg QT, baseline-normalized post-infusion (Sinclair swine [6]; [11]): 26.6% and 16.3% and 18.3%
Avg QTcB, baseline-normalized post-infusion (Sinclair swine [6]; [11]): −0.6% and 8.5% and 8.9%
Avg QTcF, baseline-normalized post-infusion (Sinclair swine [6]; [11]): 7.8% and 11.0% and 11.9%
Avg ATcV, baseline-normalized post-infusion (Sinclair swine [6]; Treatment B, group mean): 14.3%
Avg HR, baseline-normalized post-infusion (Sinclair swine [6]; Treatment B, group mean): −22.1%
Avg PR, baseline-normalized post-infusion (Sinclair swine [6]; Treatment B, group mean): 15.3%
Avg QRS, baseline-normalized post-infusion (Sinclair swine [6]; Treatment B, group mean): 10.3%
Avg QT, baseline-normalized post-infusion (Sinclair swine [6]; Treatment B, group mean): 20.4%
Avg QTcB, baseline-normalized post-infusion (Sinclair swine [6]; Treatment B, group mean): 5.6%
Avg QTcF, baseline-normalized post-infusion (Sinclair swine [6]; Treatment B, group mean): 10.3%
QT/QTc (QTcV) change post-infusion (Sinclair swine [6]; treatments A/B): increased

O=C(NCC1CCCCN1)c1cc(OCC(F)(F)F)ccc1OCC(F)(F)F (stereo not drawn) [Flecainide, N-(piperidin-2-ylmethyl)-2,5-bis(2,2,2-trifluoroethoxy)benzamide]
patients with paroxysmal atrial fibrillation exhibiting resistance to monotherapy [7]: approximately 30%
unbinding time τoff [8]: ≈ 20.5 sec
Avg ATcV, baseline-normalized post-infusion (Sinclair swine [6]; [10]): −4.4% and −6.0% and −2.6%
Avg HR, baseline-normalized post-infusion (Sinclair swine [6]; [10]): −7.2% and −26.5% and −9.6%
Avg PR, baseline-normalized post-infusion (Sinclair swine [6]; [10]): 22.3% and 17.5% and 8.6%
Avg QRS, baseline-normalized post-infusion (Sinclair swine [6]; [10]): 0.1% and −1.3% and 3.5%
Avg QT, baseline-normalized post-infusion (Sinclair swine [6]; [10]): −3.5% and −1.6% and −1.4%
Avg QTcB, baseline-normalized post-infusion (Sinclair swine [6]; [10]): −7.1% and −15.7% and −6.3%
Avg QTcF, baseline-normalized post-infusion (Sinclair swine [6]; [10]): −5.9% and −11.2% and −4.7%
Avg ATcV, baseline-normalized post-infusion (Sinclair swine [6]; Treatment A, group mean): −4.3%
Avg HR, baseline-normalized post-infusion (Sinclair swine [6]; Treatment A, group mean): −14.5%
Avg PR, baseline-normalized post-infusion (Sinclair swine [6]; Treatment A, group mean): 16.1%
Avg QRS, baseline-normalized post-infusion (Sinclair swine [6]; Treatment A, group mean): 0.7%
Avg QT, baseline-normalized post-infusion (Sinclair swine [6]; Treatment A, group mean): −2.2%
Avg QTcB, baseline-normalized post-infusion (Sinclair swine [6]; Treatment A, group mean): −9.7%
Avg QTcF, baseline-normalized post-infusion (Sinclair swine [6]; Treatment A, group mean): −7.3%
Avg ATcV, baseline-normalized post-infusion (Sinclair swine [6]; [11]): 11.4% and −2.3% and −1.9%
Avg HR, baseline-normalized post-infusion (Sinclair swine [6]; [11]): 0.4% and −18.8% and −13.6%
Avg PR, baseline-normalized post-infusion (Sinclair swine [6]; [11]): 13.3% and 9.7% and 24.6%
Avg QRS, baseline-normalized post-infusion (Sinclair swine [6]; [11]): 4.4% and 3.3% and 18.2%
Avg QT, baseline-normalized post-infusion (Sinclair swine [6]; [11]): 12.6% and 2.1% and 0.1%
Avg QTcB, baseline-normalized post-infusion (Sinclair swine [6]; [11]): 12.8% and −8.0% and −6.9%
Avg QTcF, baseline-normalized post-infusion (Sinclair swine [6]; [11]): 12.7% and −4.7% and −4.6%
Avg ATcV, baseline-normalized post-infusion (Sinclair swine [6]; Treatment B, group mean): 2.4%
Avg HR, baseline-normalized post-infusion (Sinclair swine [6]; Treatment B, group mean): −10.7%
Avg PR, baseline-normalized post-infusion (Sinclair swine [6]; Treatment B, group mean): 15.8%
Avg QRS, baseline-normalized post-infusion (Sinclair swine [6]; Treatment B, group mean): 8.7%
Avg QT, baseline-normalized post-infusion (Sinclair swine [6]; Treatment B, group mean): 4.9%
Avg QTcB, baseline-normalized post-infusion (Sinclair swine [6]; Treatment B, group mean): −0.7%
Avg QTcF, baseline-normalized post-infusion (Sinclair swine [6]; Treatment B, group mean): 1.1%
IC50 (Ito): 15.2 µM
IC50 ([9]; read-out: potency for inhibition of RyR2): ~20 µM
IC50 ([9]; value used in O'Hara-Rudy model, read-out: IC50 IRyR): 20 µM
EC50 (IK1): 0.4 µM
